Several values for one entry are separate records, joined by “and”; a condition that tells them apart may be missing. Equal entries are not always repeated.
Legend:
[1] = tested on: Anopheles arabiensis; assay: Insecticidal in Anopheles arabiensis assessed as mortality observed within 48 hrs after ingestion relative to control; assay type: functional, organism-based
[2] = tested on: Anopheles gambiae; assay: Insecticidal in Anopheles gambiae assessed as probability of survival per day fed with blood of compound treated human at 150 microg/kg observed for 6 days relative to control; assay type: functional, organism-based; conditions: dose 150.0 µg/kg, time 6.0 day
[3] = tested on: Anopheles stephensi; assay: Insecticidal in Anopheles stephensi assessed as lethal concentration membrane-fed with compound treated blood; assay type: functional, organism-based
[4] = tested on: Aedes aegypti; assay: Insecticidal in Aedes aegypti assessed as mortality rate fed with blood of compound treated mouse at 83 mg/kg, sc before 12 hrs and observed after 36 hrs relative to control; assay type: functional, organism-based
[5] = tested on: Anopheles gambiae; assay: Insecticidal in Anopheles gambiae assessed as mortality fed with compound treated bovine blood at 6 ng/mL observed for 10 days relative to control; assay type: functional, organism-based; conditions: time 10.0 day
[6] = tested on: Anopheles stephensi; assay: Insecticidal in Anopheles stephensi assessed as mortality rate with blood of compound treated mouse at 82 microg/kg observed within 36 hrs relative to control; assay type: functional, organism-based; conditions: dose 82.0 µg/kg
[7] = tested on: Anopheles stephensi; assay: Insecticidal in Anopheles stephensi assessed as mortality rate membrane-fed with blood of compound treated mouse at 600 microg/kg observed within 6 days relative to control; assay type: functional, organism-based; conditions: dose 600.0 µg/kg, time 6.0 day
[8] = tested on: Anopheles sp.; assay: Insecticidal in Anopheles sp. infected with Plasmodium falciparum gametocytes assessed as mortality fed with compound treated bovine blood at 200 microg/kg observed within 2.87 days feeding at 2 days post treatment relative to control; assay type: functional, organism-based; conditions: dose 200.0 µg/kg, time 2.87 day
[9] = tested on: Anopheles gambiae; assay: Insecticidal in Anopheles gambiae assessed as lethal concentration membrane-fed with compound treated human blood at 200 microg/kg observed after 48 to 72 hrs; assay type: functional, organism-based; conditions: dose 200.0 µg/kg, time 48-72 hrs
[10] = tested on: Anopheles sp.; assay: Insecticidal in Anopheles sp. assessed as mortality fed with treated bovine blood containing 1% of compound observed within 4 days after a blood meal on 7 days post treatment relative to control; assay type: functional, organism-based; conditions: time 4.0 day
[11] = tested on: Plasmodium berghei; assay: In vivo antimalarial activity against liver stage Plasmodium berghei infected in mouse assessed as increase in mouse survival days at 10 mg/kg; assay type: functional, organism-based
[12] = tested on: Anopheles sp.; assay: Insecticidal in Anopheles sp. assessed as lethal concentration membrane-fed with compound treated pig blood; assay type: functional
[13] = tested on: Anopheles sp.; assay: In vitro Insecticidal in Anopheles sp. assessed as lethality membrane-fed with compound treated human blood at 400 microg/kg per day in presence of combination of 120 mg dihydroartemisinin, 960 mg piperaquine and 30 mg primaquine observed after 7 days; assay type: functional, organism-based; conditions: dose 400.0 µg/kg, time 7.0 day
[14] = tested on: Anopheles sp.; assay: Insecticidal in Anopheles sp. assessed as mortality fed with treated bovine blood containing 1% of compound observed within 4 days after a blood meal on 2 days post treatment relative to control; assay type: functional, organism-based; conditions: time 4.0 day
[15] = tested on: Anopheles sp.; assay: Insecticidal in Anopheles sp. assessed as lethal concentration membrane-fed with compound treated blood; assay type: functional, organism-based
[16] = tested on: Anopheles arabiensis; assay: Insecticidal in Anopheles arabiensis assessed as percentage of reduction in mortality in 3 day survivorship fed with compound treated bovine blood at 73 mg observed for 24 weeks relative to control; assay type: functional, organism-based
[17] = tested on: Anopheles sp.; assay: Insecticidal in Anopheles sp. assessed as lethal concentration membrane-fed with compound treated blood observed after 4 days; assay type: functional, organism-based; conditions: time 4.0 day
[18] = tested on: Anopheles sp.; assay: Insecticidal in Anopheles sp. infected with Plasmodium falciparum gametocytes assessed as reduction in survival fed with compound treated bovine blood at 200 microg/kg feeding at 28 days after injection relative to control; assay type: functional, organism-based; conditions: dose 200.0 µg/kg
[19] = tested on: Anopheles minimus; assay: In vitro Insecticidal in Anopheles minimus assessed as lethality membrane-fed with compound treated human blood at 400 microg/kg per day in presence of combination of 120 mg dihydroartemisinin, 960 mg piperaquine and 30 mg primaquine observed after 7 days; assay type: functional, organism-based; conditions: dose 400.0 µg/kg, time 7.0 day
[20] = tested on: Anopheles stephensi; assay: Insecticidal in Anopheles stephensi larvae measured after 48 hrs; assay type: functional
[21] = tested on: Anopheles sp.; assay: Insecticidal in Anopheles sp. infected with Plasmodium vivax assessed as mortality rate midgut fed with blood isolated from compound treated parasite-infected human observed after 7 days relative to control; assay type: functional, organism-based; conditions: time 7.0 day
[22] = tested on: Culex quinquefasciatus; assay: Insecticidal in Culex quinquefasciatus assessed as mortality rate membrane-fed with compound treated human blood at 10 to 100 microg/mL observed within 7 days relative to control; assay type: functional, organism-based; conditions: dose 10-100 µg/ml, time 7.0 day
[23] = tested on: Aedes aegypti; assay: Insecticidal in Aedes aegypti assessed as mortality rate membrane-fed with compound treated human blood at 10 to 100 microg/mL observed within 7 days relative to control; assay type: functional, organism-based; conditions: dose 10-100 µg/ml, time 7.0 day
[24] = tested on: Anopheles sp.; assay: Insecticidal in Anopheles sp. infected with Plasmodium vivax assessed as mortality rate fed with blood isolated from compound treated human at 200 microg/kg observed for 5 days; assay type: functional, organism-based; conditions: dose 200.0 µg/kg, time 5.0 day
[25] = tested on: Anopheles minimus; assay: Insecticidal in Anopheles minimus assessed as lethal concentration membrane-fed with compound treated human blood at 200 microg/kg observed for 7 days; assay type: functional, organism-based; conditions: dose 200.0 µg/kg, time 7.0 day
[26] = tested on: Anopheles sp.; assay: Insecticidal in Anopheles sp. assessed as mortality rate fed with blood of compound treated human at 200 microg/kg administered once caught on day 1 after mass drug administration observed within 5 days relative to control; assay type: functional, organism-based; conditions: dose 200.0 µg/kg, time 5.0 day
[27] = tested on: Anopheles sp.; assay: Insecticidal in Anopheles sp. assessed as mortality fed with compound treated human blood at 400 microg/kg in the presence of 6 mg/kg diethylcarbamazine citrate died in 9 days relative to control; assay type: functional, organism-based; conditions: dose 400.0 µg/kg, time 9.0 day
[28] = tested on: Anopheles gambiae; assay: Insecticidal in Anopheles gambiae assessed as mortality fed with compound treated bovine blood at 600 microg/kg observed for 10 days; assay type: functional, organism-based; conditions: dose 600.0 µg/kg, time 10.0 day
[29] = tested on: Plasmodium vivax; assay: Antimalarial activity against Plasmodium vivax assessed as reduction in […] in Anopheles sp. mosquito midgut fed with blood isolated from compound treated parasite-infected human at 40 ng/ml observed after 7 days relative to control; assay type: functional, organism-based; conditions: time 7.0 day
[30] = tested on: Plasmodium berghei; assay: In vivo antimalarial activity against liver stage Plasmodium berghei infected in mouse assessed as inhibition of liver infection at 10 mg/kg measured 44 to 46 hrs post-infection by bioluminescence assay relative to control; assay type: functional, organism-based; conditions: time 44-46 hrs
[31] = tested on: Anopheles arabiensis; assay: Insecticidal in Anopheles arabiensis assessed as reduction in fecundity fed with compound treated bovine blood at 200 microg/kg relative to control; assay type: functional, organism-based; set-up: scale not given: the % may be the effect or the level left; conditions: dose 200.0 µg/kg
[32] = tested on: Anopheles sp.; assay: Insecticidal in Anopheles sp. assessed as mortality rate fed with compound treated human blood at 400 microg/kg observed in 48 hrs relative to control; assay type: functional, organism-based; conditions: dose 400.0 µg/kg
[33] = tested on: Plasmodium berghei; assay: In vivo antimalarial activity against blood stage Plasmodium berghei transfected with GFP infected in mouse assessed as increase in mouse survival days at 0.5 mg/kg for 3 days; assay type: functional, organism-based; conditions: time 3.0 day
[34] = tested on: Anopheles sp.; assay: Insecticidal in Anopheles sp. assessed as mortality relative to control; assay type: functional, organism-based
[35] = tested on: Culex pipiens; assay: Insecticidal in Culex pipiens larvae measured after 48 hrs; assay type: functional
[36] = tested on: Anopheles sp.; assay: Insecticidal in Anopheles sp. infected with Plasmodium falciparum gametocytes assessed as reduction in survival fed with compound treated bovine blood at 200 microg/kg feeding at 2 days after injection relative to control; assay type: functional, organism-based; conditions: dose 200.0 µg/kg
[37] = tested on: Anopheles sp.; assay: Insecticidal in Anopheles sp. infected with Plasmodium falciparum gametocytes assessed as reduction in survival fed with compound treated bovine blood at 200 microg/kg feeding at 7 days after injection relative to control; assay type: functional, organism-based; conditions: dose 200.0 µg/kg
[38] = tested on: Anopheles sp.; assay: Insecticidal in Anopheles sp. assessed as mortality rate fed with blood of compound treated human at 200 microg/kg administered once caught on day 2 after mass drug administration observed within 5 days relative to control; assay type: functional, organism-based; conditions: dose 200.0 µg/kg, time 5.0 day

IVERMECTIN
mortality [1]: 95% | Survival [2]: > 10% | MLC [3]: 1 ppm | mortality [4]: 60% | mortality [5]: 50% | mortality [6]: 100% | mortality [7]: 85% | mortality [8]: 100% | LC50 [9]: 0.01 µg/mL and 0.007 µg/mL | mortality [10]: 80% | Survival [11]: 10 days | LC50 [12]: 0.0178 µg/mL | LC50 [13]: 0.0576 µg/mL | mortality [14]: 60% | MLC [15]: 50 ppm | mortality [16]: 50% | LC50 [17]: 1.47 µg/mL | Survival [18]: 23% | LC50 [19]: 0.0147 µg/mL | LC50 [20]: 5.85 ppb | mortality [21]: 97.1% | mortality [22]: 100% | mortality [23]: 100% | mortality [24]: 50% | LC50 [25]: 0.0264 µg/mL | mortality [26]: 75% | mortality [27]: 100% | mortality [28]: 90% | inhibition [29]: 86% | inhibition [30]: 80% | Activity [31]: 79% | mortality [32]: 69% | Survival [33]: 23 days | mortality [34]: 90% | LC50 [35]: 3.94 ppb | Survival [36]: 86% | Survival [37]: 83% | mortality [38]: 80%

Reference: ChEMBL document CHEMBL5226321, “Ivermectin: A Promising Therapeutic for Fighting Malaria. Current Status and Perspective” (J Med Chem, 2021)
